Laboratory results taken from the NIST ThermoML archive (doi:10.1016/j.jct.2006.05.006).
± gives the expanded uncertainty stated by the source.

How the values were obtained:
[1] = 101 kPa, Liquid
[2] = refractive index (Na D-line) (dimensionless); details: 293.1 K; 101.33 kPa; Liquid; Standard Abbe refractometry
[3] = xn = mol fraction of the nth substance listed; details: 101 kPa, Liquid

CN1CCCC1=O [N-methylpyrrolidone]
[1]
Details	mass density [kg/m3]
293.15 K	1032.66 ± 0.37
303.15 K	1023.42 ± 0.34
313.15 K	1014.27 ± 0.31
323.15 K	1005.62 ± 0.28
333.15 K	996.28 ± 0.28
343.15 K	987.39 ± 0.31
353.15 K	978.62 ± 0.65

Details	refractive index
[2]	1.4677 ± 0.0007

CN1CCCC1=O [N-methylpyrrolidone] + CCc1ccccc1
[3], x2 = 0
Details	mass density [kg/m3]
293.15 K	1032.66 ± 0.37
303.15 K	1023.42 ± 0.34
313.15 K	1014.27 ± 0.31
323.15 K	1005.62 ± 0.28
333.15 K	996.28 ± 0.28
343.15 K	987.39 ± 0.31
353.15 K	978.62 ± 0.33

c1ccccc1 [benzene]
[1]
Details	mass density [kg/m3]
293.15 K	878.96 ± 0.64
303.15 K	868.21 ± 0.67
313.15 K	857.4 ± 0.71
323.15 K	846.55 ± 0.74
333.15 K	835.66 ± 0.78
343.15 K	824.71 ± 0.81

Details	refractive index
[2]	1.5009 ± 0.0007

c1ccccc1 [benzene] + CN1CCCC1=O
[3], x1 = 1
Details	mass density [kg/m3]
293.15 K	878.96 ± 0.64
303.15 K	868.21 ± 0.67
313.15 K	857.4 ± 0.71
323.15 K	846.55 ± 0.74
333.15 K	835.66 ± 0.78
343.15 K	824.71 ± 0.81

CCc1ccccc1 [ethylbenzene]
[1]
Details	mass density [kg/m3]
293.15 K	867.28 ± 0.81
303.15 K	858.36 ± 0.84
313.15 K	849.38 ± 0.86
323.15 K	840.35 ± 0.89
333.15 K	831.25 ± 0.91
343.15 K	822.11 ± 0.94
353.15 K	812.9 ± 0.97

Details	refractive index
[2]	1.4962 ± 0.0008

Cc1ccccc1 [toluene]
[1]
Details	mass density [kg/m3]
293.15 K	866.8 ± 1.9
303.15 K	857.53 ± 2
313.15 K	848.23 ± 2
323.15 K	838.91 ± 2.1
333.15 K	829.55 ± 2.1
343.15 K	820.17 ± 2.2
353.15 K	810.77 ± 2.2

Details	refractive index
[2]	1.4965 ± 0.0008

Cc1ccccc1 [toluene] + CN1CCCC1=O
[3], x1 = 1
Details	mass density [kg/m3]
293.15 K	866.8 ± 1.9
303.15 K	857.53 ± 2
313.15 K	848.23 ± 2
323.15 K	838.91 ± 2.1
333.15 K	829.55 ± 2.1
343.15 K	820.17 ± 2.2
353.15 K	810.77 ± 2.2
